# Measured values: paper PMC6917776, “Discovery of a chemical probe for PRDM9” (Nature Communications, 2019)
# Tested on: H3K4me3 at known PRDM9 binding loci and control TSS loci
# Experiment: ChIP-qPCR of H3K4me3 in PRDM9-transfected HEK293T cells
# Format: cell-based, human
# Conditions: for dCq (IP-Input): H3K4me3 antibody, Replicate 1; for 2^-dCq (H3K4me3 ChIP-qPCR, IP relative to H3) / H3K4me3 ChIP-qPCR 2^-dCq (IP-Input): Replicate 2; for 2^-dCq (H3K4me3 ChIP-qPCR, IP relative to H3): Antibody H3K4me3; for H3K4me3 ChIP-qPCR 2^-dCq (IP-Input): chr2:40281930-40282015 Intragenic (SLC8A1-AS1), Figure 7 C, H3K4me3 antibody relative to H3
# Protocol: ChIP-qPCR assays were then conducted on known PRDM9 binding loci[26]. Ectopic expression of PRDM9^WT increased trimethylation of H3K4 (H3K4me3) at previously described PRDM9-specific intragenic and intergenic regions[26] (Fig. 7; Supplementary Fig. 12). […] The observed increases in H3K4me3 levels at intragenic and intergenic regions are therefore due directly to PRDM9 PR domain-dependent methylation activity, rather than through recruitment of other H3K4 methyltransferases or other indirect mechanisms.
# ChIP qPCR analyses of H3K4me3 methylation levels of known PRDM9-bound loci and control loci. […] Concentrations used (µM) are indicated below each plot. (a–d) represent reported loci of PRDM9 methylation; (e, f) are transcriptional start sites (TSSs) which are not known loci of PRDM9 methylation. Data are normalized to total H3 and are presented as the mean ± upper and lower limits from two replicates. Representative plots of two independent experiments are shown in this figure. The coordinates and the genomic features associated with the assayed loci are indicated above each plot. Left Tailed Student's t-tests were performed by comparing DMSO (0 µM) treated cells to compound treated cells that have been transfected with the same plasmids. *p-value < 0.05 and **p-value < 0.01. Note that here we show a representative of two independent experiments (mean ± s.d of technical replicates) for our ChIP-qPCR experiments. Data obtained using this technique are inherently noisy due to stochastic differences in gene activity/histone positioning. Data are thus typically presented as representative rather than averaged. Source data are provided as a Source Data file.
# HEK293T cells were transfected with 37.5 μg empty pcDNA3.1(+) vector (Invitrogen), or the same vector expressing either wild-type PRDM9 (PRDM9^WT) or a catalytically dead PRDM9 mutant (PRDM9^Mut) and 75 μL of Lipofectamine 2000 (Invitrogen) in 6 mL of Opti-MEM (GIBCO) for 48 h. […] ChIP assays were then performed as previously described. Briefly, cells were fixed in 1% formaldehyde and the fixation reaction was quenched in a final concentration of 0.1 M glycine. Cell pellets were first lysed in LB1 (50 mM HEPES-KOH pH 7.5, 140 mM NaCl, 1 mM EDTA, 10% Glycerol, 0.5% Igepal, 0.25% TritonX), washed once in LB2 Buffer (10 mM Tris-HCl pH 8, 200 mM NaCl, 1 mM EDTA, 0.5 mM EGTA) and finally sonicated in LB3 buffer (10 mM Tris-HCl pH 8, 100 mM NaCl, 1 mM EDTA, 0.5 mM EGTA, 0.1% Sodium deoxycholate, 0.5% N-laurosylsarcosine) using a bioruptor (Diagenode). Thereafter, 50 μg of chromatin was subjected to ChIP using the following antibodies purchased from Abcam: α-H3K4me3 (1:200, ab8580, lot:GR3207339-1) and α-H3 (1:250, ab1791, lot:GR300978-4). After extensive washing in RIPA wash buffer (50 mM HEPES-KOH pH 7.6, 100 mM LiCl, 1 mM EDTA, 1% Igepal, 0.7% Sodium Deoxycholate), DNA was eluted from beads. The eluted DNA was treated with RNase A and Proteinase K and purified using the QIAGEN PCR purification kit. qPCR was then carried out targeting the indicated loci (Supplementary Table 3). Upper and lower limits were defined by |2^−(dCq±s) − 2^−(∆Cq)|, where s = √((Standard deviation of Input Cq)^2 + (Standard deviation of Target Cq)^2). […]
# formation. ChIP qPCR analyses of H3K4me3 methylation levels at known PRDM9-bound and control loci. Cells transfected with empty vector (negative control) or vectors overexpressing either wild-type PRDM9 (PRDM9 WT) or catalytically dead PRDM9 (PRDM9 MUT) were […]
# Panels a-d represent reported loci of […]
# (1 picture or pasted object on this page, not shown here)
# PRDM9 methylation; e-f are TSSs which are not known sites of PRDM9 methylation. Data are normalized to total H3 and are presented as the mean ± upper and lower limits from two […]
smiles,measurement,setting,value
COc1cc(OC)cc(-c2noc(N3CCN(C)C4(CCN(c5ccnc(C)c5)CC4)C3)n2)c1 [MRK-740],dCq (IP-Input),"chr8:49932778-49932856 (Intergenic), PRDM9",-2.203
same,dCq (IP-Input),"chr8:49932778-49932856 (Intergenic), PRDM9_Cat.Dead",1.033
same,dCq (IP-Input),"chr12:6643945-6644023 TSS (GAPDH), Empty Vector",-5.504
same,dCq (IP-Input),"chr12:6643945-6644023 TSS (GAPDH), PRDM9",-5.409
same,dCq (IP-Input),"chr12:6643945-6644023 TSS (GAPDH), PRDM9_Cat.Dead",-6.466
same,dCq (IP-Input),"chr19:8510167-8510261 TSS (HNRNPM), Empty Vector",-5.657
same,dCq (IP-Input),"chr19:8510167-8510261 TSS (HNRNPM), PRDM9",-5.412
same,dCq (IP-Input),"chr19:8510167-8510261 TSS (HNRNPM), PRDM9_Cat.Dead",-6.463
same,"H3K4me3 levels at tested TSS sites (ChIP-qPCR, in words)","HEK293T transfected with wild-type PRDM9, 48 h",No significant reduction in H3K4me3 levels
same,"H3K4me3 levels at PRDM9-dependent intragenic and intergenic loci (ChIP-qPCR, in words)","HEK293T transfected with wild-type PRDM9, 48 h, various concentrations",abrogated in a concentration-dependent manner in three out of four PRDM9-dependent loci
same,"2^-dCq (H3K4me3 ChIP-qPCR, IP relative to H3)","Figure 7 D chr3:165514798-165514911 Intragenic (BCHE), Plasmid Empty Vector, Drug Conc. 2.5",0.6821
same,"2^-dCq (H3K4me3 ChIP-qPCR, IP relative to H3)","Figure 7 D chr3:165514798-165514911 Intragenic (BCHE), Plasmid Empty Vector, Drug Conc. 5",0.9187
same,"2^-dCq (H3K4me3 ChIP-qPCR, IP relative to H3)","Figure 7 D chr3:165514798-165514911 Intragenic (BCHE), Plasmid Empty Vector, Drug Conc. 10",0.5228
same,"2^-dCq (H3K4me3 ChIP-qPCR, IP relative to H3)","Figure 7 D chr3:165514798-165514911 Intragenic (BCHE), Plasmid PRDM9WT, Drug Conc. 2.5",6.769
same,"2^-dCq (H3K4me3 ChIP-qPCR, IP relative to H3)","Figure 7 D chr3:165514798-165514911 Intragenic (BCHE), Plasmid PRDM9WT, Drug Conc. 5",7.878
same,"2^-dCq (H3K4me3 ChIP-qPCR, IP relative to H3)","Figure 7 D chr3:165514798-165514911 Intragenic (BCHE), Plasmid PRDM9WT, Drug Conc. 10",3.468
same,"2^-dCq (H3K4me3 ChIP-qPCR, IP relative to H3)","Figure 7 E chr12:6643945-6644023 TSS (GAPDH), Plasmid Empty Vector, Drug Conc. 2.5",49.5681
same,"2^-dCq (H3K4me3 ChIP-qPCR, IP relative to H3)","Figure 7 E chr12:6643945-6644023 TSS (GAPDH), Plasmid Empty Vector, Drug Conc. 5",83.0384
same,"2^-dCq (H3K4me3 ChIP-qPCR, IP relative to H3)","Figure 7 E chr12:6643945-6644023 TSS (GAPDH), Plasmid Empty Vector, Drug Conc. 10",114.864
same,"2^-dCq (H3K4me3 ChIP-qPCR, IP relative to H3)","Figure 7 E chr12:6643945-6644023 TSS (GAPDH), Plasmid PRDM9WT, Drug Conc. 2.5",64.1133
same,"2^-dCq (H3K4me3 ChIP-qPCR, IP relative to H3)","Figure 7 E chr12:6643945-6644023 TSS (GAPDH), Plasmid PRDM9WT, Drug Conc. 5",130.72
same,"2^-dCq (H3K4me3 ChIP-qPCR, IP relative to H3)","Figure 7 E chr12:6643945-6644023 TSS (GAPDH), Plasmid PRDM9WT, Drug Conc. 10",21.1787
same,"2^-dCq (H3K4me3 ChIP-qPCR, IP relative to H3)","Figure 7 F chr19:8510167-8510261 TSS (HNRNPM), Plasmid Empty Vector, Drug Conc. 2.5",123.77
same,"2^-dCq (H3K4me3 ChIP-qPCR, IP relative to H3)","Figure 7 F chr19:8510167-8510261 TSS (HNRNPM), Plasmid Empty Vector, Drug Conc. 5",107.435
same,"2^-dCq (H3K4me3 ChIP-qPCR, IP relative to H3)","Figure 7 F chr19:8510167-8510261 TSS (HNRNPM), Plasmid Empty Vector, Drug Conc. 10",99.1079
same,"2^-dCq (H3K4me3 ChIP-qPCR, IP relative to H3)","Figure 7 F chr19:8510167-8510261 TSS (HNRNPM), Plasmid PRDM9WT, Drug Conc. 2.5",68.6717
same,"2^-dCq (H3K4me3 ChIP-qPCR, IP relative to H3)","Figure 7 F chr19:8510167-8510261 TSS (HNRNPM), Plasmid PRDM9WT, Drug Conc. 5",143.684
same,"2^-dCq (H3K4me3 ChIP-qPCR, IP relative to H3)","Figure 7 F chr19:8510167-8510261 TSS (HNRNPM), Plasmid PRDM9WT, Drug Conc. 10",36.5414
same,H3K4me3 ChIP-qPCR 2^-dCq (IP-Input),"Empty Vector, Drug Conc. 2.5",0.6992
same,H3K4me3 ChIP-qPCR 2^-dCq (IP-Input),"Empty Vector, Drug Conc. 5",0.9795
same,H3K4me3 ChIP-qPCR 2^-dCq (IP-Input),"Empty Vector, Drug Conc. 10",0.6781
same,H3K4me3 ChIP-qPCR 2^-dCq (IP-Input),"PRDM9WT, Drug Conc. 2.5",6.293
same,H3K4me3 ChIP-qPCR 2^-dCq (IP-Input),"PRDM9WT, Drug Conc. 5",5.934
